Assay results from patent US9969715B2, “Compounds useful for treating cancer” (ABIVAX, priority 2012, dated 2018).

How the values were obtained:
[1] = tested on: MDA-MB231-luc-D3H2LN cells; experiment: Toxicity assay under normal cell culture conditions (MTS), MDA cells; format: cell-based, human; settings: MDA-MB231-luc-D3H2LN cells, MEM+10% FBS, 72 h incubation, MTS
Protocol: (§1) In order to detect possible toxic effects, all compounds are tested in parallel in a viability assay. The viability assay is performed in parallel on serum-starved cells (as in the invasion assay) vs. cells under normal culture conditions (10% FBS).
(§2) Toxicity Assays (Under Normal Cell Culture Conditions):
(§3) Compounds were prepared as for the invasion assay, and then added to either MDA-MB231-luc-D3H2LN cells (2000/well) under normal culture conditions (MEM+10% FBS), or human PBMC (75000/well, in RPMI+10% FBS+IL-2) in standard 96-well tissue culture plates. After 72 h incubation, a standard MTS assay was performed according to the manufacturer's instructions (Promega Ref. G3581). Compounds were tested at various concentrations (concentration-response curves) in order to determine the concentrations at which 50% toxicity is obtained.

[2] = tested on: MDA-MB231-luc-D3H2LN cells; experiment: Viability (MTS) assay on the cells in collagen under invasion assay conditions; format: cell-based, human; settings: loss of viability at the concentration giving 0.5 × effect of 10 μM Y-27632, invasion assay conditions
Protocol: (§4) Viability assay, fixation and staining: Following another 24 h incubation, an MTS assay is performed directly on the cells in the collagen. Then, cells are fixed and nuclei are stained.
as §1
Viability Assay: MTS Assay:
add each 33 μl/well of the MTS reagent, incubate 3-4 h at 37° C./5% CO2
read absorbance at 490 nm (proportional to the viability)
calculate the background-corrected signals by subtracting the means of the background signals in absence of cells from the corresponding signals in presence of cells
normalize the background-corrected signals with respect to the mean signal of the negative controls (no drug) (viabilities are thus expressed in “% of control”)
(§5) Final analysis: Determine the concentration at which a given compound has 50% of the anti-invasive effect of the positive control (10 μM Y-27632). Determine the toxicity (=loss of viability) of the compound under these conditions.

[3] = tested on: MDA-MB231-luc-D3H2LN cells; experiment: Invasion of MDA-MB231-D3H2LN cells into collagen (example 15 = procedure 2, 48 h drug pre-incubation); format: cell-based; settings: concentration giving 50% of the anti-invasive effect of 10 μM Y-27632; 48 h pre-incubation, 24 h with 5% FBS; read-out: MDA: Inhib. of invasion: 0.5 × eff. of 10 μM Y-27632 at (μM) av
Protocol: Effect of Drug Compounds on Invasion of MDA-MB231-D3H2LN Cells into Collagen
Preparation of cells at the bottom of a collagen gel: Cells are suspended in a liquid collagen solution (4° C.), distributed into BSA-coated wells, and then collected at the bottom of the wells by centrifugation. The collagen is then solidified by incubation at 37° C. The BSA coating improves the adhesion of the collagen gel.
Pre-treatment with the compounds to be tested: Concentrated drug solutions are then added on top of the collagen, and cells are pre-incubated for 48 h with the drugs at low serum conditions (0.025% FBS).
Stimulation of invasion: Medium with 5% FBS is then added in order to stimulate invasion of the cells into the collagen gel.
as §4
Analysis: Finally, plates are analyzed using an automated microscope. Fluorescent beads that have been included into the BSA coating serve to detect the bottom of the wells. Pictures of the stained nuclei are taken at the same level (0 μm) as well as 25 μm and 50 μm above.
Negative control: No drug (just DMSO at equivalent concentration). Positive control: 10 μM Y-27632. To avoid edge effects, cells are added only to the 60 central wells B2-G11; lines A and H receive only collagen without cells (blank for the MTS assay) columns 1 and 12 remain free. Each drug is tested at least in triplicate. The positive and negative controls should be tested in several triplicates at different positions on each plate. Typical plate map (−=negative control, +=positive control, 1-12=12 different test conditions, i. e. different drug compounds or concentrations):
Preparation of 4× concentrated drug solutions in MEM+0.1% FBS+2% Lutrol E-400+0.8% DMSO: Mix each 620 μl MEM+0.1% FBS+2% Lutrol E-400 with each 4 μl DMSO+each 1 μl of the 50 mM compound stock solutions (yielding […] and 0.8% DMSO). If the desired final compound concentration is <5 μM, then further dilute in MEM+0.1% FBS+0.8% DMSO. Negative control: MEM+0.1% FBS+2% Lutrol E-400+0.8% DMSO without any drug. Preparation of the positive control: Mix 4.5 ml MEM+0.1% FBS+2% Lutrol E-400+[…] with 36 μl 5 mM Y-27632 (freshly thawed aliquot) (yielding 40 μM).
add each 33 μl/well of the 4× concentrated drug solutions in MEM+0.1% FBS+2% Lutrol E-400+0.8% DMSO to the corresponding wells (yields 1× concentrated drugs in MEM+0.025% FBS+0.5% Lutrol E-400+0.2% DMSO final)
incubate 48 h at 37° C./5% CO2
incubate 24 h at 37° C./5% CO2
for each well, calculate the mean invasion distance of the counted cells: (25 μm×number of cells at 25 μm+50 μm×number cells at 50 μm)/sum of cells at 0, 25 and 50 μm
invalidate any replicate with a CV≥50% (compound to be re-tested, or assay to be repeated if CV≥50% for the untreated negative control or the compound Y-27632-treated positive control). Y27632 is a selective inhibitor of the Rho-associated protein kinase p160ROCK of the following formula
validate the assay only if the mean invasion distance of the cells treated with 10 μM Y-27632 (positive control) is decreased by ≥40% as compared to the untreated negative control
as §5
Here, invasion (into collagen) is the concentration of the compound necessary to reach 50% of the inhibition effect compared to 10 μM Y-27632.
Standard operating procedure 2 is exactly the same as the procedure as described in example 15.

[4] = tested on: human PBMC; experiment: Toxicity assay under normal cell culture conditions (MTS), PBMC; format: cell-based; settings: human PBMC, RPMI+10% FBS+IL-2, 72 h incubation, MTS
Protocol: as §2, §3

| Compound | MDA tox: 50% tox. at (μM) av [1] | (+ MDA tox. under these cond.) % tox [2] [%] | IC50 [3] [µM] | PBMC tox.: 50% tox. at (μM) av [4] |
| --- | --- | --- | --- | --- |
| CN(C(=O)c1cccc(Nc2cccc(C(=O)NCCCN3CCOCC3)c2)c1)c1ccncc1 [Compound 22, N-methyl-3-((3-((3-morpholinopropyl)carbamoyl)phenyl)amino)-N-(pyridin-4-yl)benzamide] | >100 µM | <10 | 2.25 | >100 µM |
| CN(C(=O)c1cccc(Nc2cccc(S(=O)(=O)NCCCN3CCCCC3)c2)c1)c1ccncc1 [Compound 24, N-methyl-3-((3-(N-(3-(piperidin-1-yl)propyl)sulfamoyl)phenyl)amino)-N-(pyridin-4-yl)benzamide] | >100 µM | <10 | 3.55 | ≥100 µM |
| CCN(CC)CCCNC(=O)c1cccc(Nc2cccc(C(=O)Nc3ccncn3)c2)c1 [Compound 25, N-(3-(diethylamino)propyl)-3-((3-(pyrimidin-4-ylcarbamoyl)phenyl)amino)benzamide] | 46 µM | <10 | < 0.5 | 88 µM |
| CCN(CC)CCCNS(=O)(=O)c1cccc(Nc2cccc(C(=O)Nc3ccncn3)c2)c1 [Compound 26, 3-((3-(N-(3-(diethylamino)propyl)sulfamoyl)phenyl)amino)-N-(pyrimidin-4-yl)benzamide] | 73 µM | <10 | 3.6 | 85 µM |
| O=C(Nc1ccncn1)c1cccc(Nc2cccc(S(=O)(=O)NCCCN3CCCCC3)c2)c1 [Compound 27, 3-((3-(N-(3-(piperidin-1-yl)propyl)sulfamoyl)phenyl)amino)-N-(pyrimidin-4-yl)benzamide] | 66 µM | <10 | 2.8 | 61 µM |
| O=C(NCCCN1CCCC1)c1cccc(Nc2cccc(C(=O)Nc3ccncn3)c2)c1 [Compound 28, N-(pyrimidin-4-yl)-3-((3-((3-(pyrrolidin-1-yl)propyl)carbamoyl)phenyl)amino)benzamide] | 35 µM | <10 | 0.26 | 49 µM |
| O=C(NCCCN1CCCCC1)c1cccc(Nc2cccc(C(=O)Nc3ccncn3)c2)c1 [Compound 29, N-(3-(piperidin-1-yl)propyl)-3-((3-(pyrimidin-4-ylcarbamoyl)phenyl)amino)benzamide] | 33 µM | <10 | 0.15 | 44 µM |
| O=C(NCCCN1CCOCC1)c1cccc(Nc2cccc(C(=O)Nc3ccncn3)c2)c1 [Compound 30, N-(3-morpholinopropyl)-3-((3-(pyrimidin-4-ylcarbamoyl)phenyl)amino)benzamide] | 75 µM | <10 | 0.28 | >100 µM |
| CN1CCN(CCCNC(=O)c2cccc(Nc3cccc(C(=O)Nc4ccncn4)c3)c2)CC1 [Compound 31, N-(3-(4-methylpiperazin-1-yl)propyl)-3-((3-(pyrimidin-4-ylcarbamoyl)phenyl)amino)benzamide] | 95 µM | <10 | 0.1 | 92 µM |
| CCN(CC)CCCNC(=O)c1cncc(Nc2cccc(C(=O)Nc3ccncc3)c2)c1 [Compound 32, N-(3-(diethylamino)propyl)-5-((3-(pyridin-4-ylcarbamoyl)phenyl)amino) nicotinamide] | >>100 μM | <10 | 13.3 | >>100 μM |
| CCN(CC)CCCNC(=O)c1ccnc(Nc2cccc(C(=O)Nc3ccncc3)c2)c1 [Compound 33, N-(3-(diethylamino)propyl)-2-((3-(pyridin-4-ylcarbamoyl)phenyl)amino) isonicotinamide] | 118 µM | <10 | 2.13 | 130 µM |
| CN1CCN(CCCNC(=O)c2ccnc(Nc3cccc(C(=O)Nc4ccncc4)c3)c2)CC1 [Compound 34] | 98 µM | <10 | 0.4 | >100 µM |
| CCN(CC)CCCNC(=O)c1cccc(Nc2cccc(C(=O)N(C)c3ccncc3)c2)n1 [Compound 37, N-(3-(diethylamino)propyl)-6-((3-(methyl(pyridin-4-yl)carbamoyl)phenyl)amino)picolinamide] | >>100 μM | <10 | 3.75 | >>100 μM |
| CCN(CC)CCCNC(=O)c1ccnc(Nc2cccc(C(=O)N(C)c3ccncc3)c2)c1 [Compound 38, N-(3-(diethylamino)propyl)-2-((3-(methyl(pyridin-4-yl)carbamoyl)phenyl)amino)isonicotinamide] | >>100 μM | <10 | 3.75 | >>100 μM |
| CN1CCN(CCCNC(=O)c2ccnc(Nc3cccc(C(=O)N(C)c4ccncc4)c3)c2)CC1 [Compound 39, 2-((3-(methyl(pyridin-4-yl)carbamoyl)phenyl)amino)-N-(3-(4-methylpiperazin-1-yl)propyl)isonicotinamide] | 19 µM | <10 | 1.45 | 74 µM |
| CN1CCN(CCCNC(=O)c2ccnc(Nc3cccc(C(=O)Nc4ccncn4)c3)c2)CC1 [Compound 42, N-(3-(4-methylpiperazin-1-yl)propyl)-2-((3-(pyrimidin-4-ylcarbamoyl)phenyl)amino)isonicotinamide] | ≥100 µM | <10 | 0.2 | >100 µM |
